7 molecules from patent publication US4207326A, “Antimicrobial quaternary pyrazole derivatives” (Cilag-Chemie A.G., priority 1979, dated 1980) can be followed below.

One assay deals with P. verrucosa. Briefly: Antifungal activity: Minimum Inhibitory Concentration. In kind it is cell-based, Phialophore verrucosa NCPF 1119. Particulars: P. verrucosa, 27° C., one week; for MIC: Phialophora verrucosa, read-out: Minimum Inhibitory Concentration. The method, then: (§1) The antimicrobial activity was determined by inoculation of the test microorganism into suitable growth media containing solutions of the compounds at concentrations of 100, 50, 10, 5, 1.0, 0.5 and 0.1 μg/ml. The reference antibiotics used were Gentamicin for the antibacterial tests and Amphotericin B for the antimycotic and antifungal tests. After incubation the antimicrobial activity was recorded as the Minimal Inhibitory Concentration (M.I.C.), i.e., the lowest concentration preventing macroscopically visible growth, for each test compound against each organism.
(§2) An initial solution of each formula (I) compound to be tested in sterile distilled water was prepared at a concentration of 1000 μg/ml. With appropriate dilutions using sterile distilled water, additional solutions were prepared at concentrations of 500, 100, 50, 10, 5 and 1 μg/ml.
(§3) The A. corymbifera, A. fumigatus, S. schenkii, T. rubrum, T. mentagrophytes, M. canis and P. verrucosa strains were all maintained on Sabouraud-Dextrose Agar (Oxoid CM 41) by incubating for 14 days at 27° C. To prepare the inocula 30 ml volumes of Sabouraud-Liquid medium (Oxoid CM 147) were inoculated from the agar cultures and incubated at 27° C. until heavy uniform growth resulted. The mycelial growth was then broken up by shaking with glass beads.
(§4) 1 Ml aliquots were removed from each of the cultures for the purpose of making viable counts and the cultures were then held at 4° C. The viable counts were made by preparing serial ten-fold dilutions of the cultures in sterile physiological saline and spreading on plates of Sabouraud-Dextrose Agar (Oxoid CM 41) which were then incubated at 27° C. for 14 days. When the viable counts had confirmed that each of the inocula contained approximately 10^6 colony forming units (C.F.U.) per ml the cultures were withdrawn from the refrigerator and used as the inocula for the tests.
(§5) (c) For the tests on each of the remaining seven strains and each of the test and reference compounds, a series of 8 tubes containing 4.5 ml volumes of Sabouraud-Liquid Medium (Oxoid CM 147) were prepared. To 7 of these were added 0.5 ml volumes of the final solutions of the test compounds, giving final concentrations in the broths of 100, 50, 10, 5, 1.0, 0.5 and 0.1 μg/ml. To the eighth tube in each series was added 0.5 ml of the solvent used and diluted as for the preparation of the 500 μg/ml solution of the compound. This tube was used as a growth control. The tubes were then inoculated with 0.1 ml aliquots of the inocula prepared as in "(b) Fungi" above. The tubes were then incubated at 27° C. with continuous shaking for a period of one week. The tubes were then examined for evidence of growth as shown by the presence of mycelial growth in the medium and the lowest concentration of the test compound which prevented fungal growth was recorded as the Minimal Inhibitory Concentration. This test procedure was carried out on two separate days.

Another assay relates to E. coli. The assay can be described thus: Antibacterial activity: Minimum Inhibitory Concentration. In kind it is cell-based, Escherichia coli ATCC 8739. Particulars: 24 hours; for MIC: Escherichia coli. The procedure:
as §1, §2
(§6) They were cultured and maintained on Tryptone Soy Agar (Oxoid CM 131), with the addition of 10% horse blood for the S. pyogenes.
(§7) To prepare the organisms as inocula for the test, slopes of this medium were streaked with the organisms and incubated at 37° C. for 24 hours. 4.5 Ml volumes of Brian-Heart Infusion Broth (Oxoid CM 225) were then inoculated with a platinum loop from the agar slope cultures and incubated for 24 hours at 37° C. The final inocula were then prepared by adding 0.1 ml aliquots of the Brain-Heart Infusion Broth cultures to 100 ml volumes of sterile physiological saline.
(§8) (a) For the test on each of the bacterial strains and each of the test and reference compounds, a series of 8 tubes containing 4.5 ml volumes of Brain-Heart Infusion Broth (Oxoid CM 225) were prepared. To 7 of these were added 0.5 ml volumes of the final solutions of the test compouns, giving final concentrations in the broths of 100, 50, 10, 5, 1.0, 0.5 and 0.1 μg/ml. To the eighth tube in each series was added 0.5 ml of the solvent used and diluted as for the preparation of the 1000 μg/ml solution of the compound. This tube was used as the growth control. The tubes were inoculated with 0.02 ml aliquots of the inocula prepared in accordance with "(a) Bacteria" above, and incubated at 37° C. for 24 hours. The tubes were then examined for evidence of bacterial growth as shown by turbidity of the medium and the lowest concentration of the test compound which prevented bacterial growth was recorded as the Minimal Inhibitory Concentration. This test procedure was carried out on two separate days.

Another assay has as its system P. mirabilis. The assay is described as above. Format: cell-based, Proteus mirabilis NCTC 8559. Particulars: P. mirabilis, 37° C., 24 hours; for MIC: Proteus mirabilis, read-out: Minimum Inhibitory Concentration. The method, then: as §1, §2, §6, §7, §8
The subject of a further assay is A. corymbifera. Briefly: Antifungal activity: Minimum Inhibitory Concentration. Particulars: A. corymbifera, 27° C., one week; for MIC: Lichtheimia corymbifera, read-out: Minimum Inhibitory Concentration. Format: cell-based, Absidia corymbifera NCPF 2001. The procedure: as §1, §2
A. corymbifera NCPF 2001
as §3, §4, §5

The subject of the next assay is C. albicans. The assay can be described thus: Antimycotic activity: Minimum Inhibitory Concentration. Particulars: pH 5.5, 37° C., 72 hours; for Minimum Inhibitory Concentrations: C. albicans; for MIC: Candida albicans, pH 5.5, C. albicans, read-out: Minimum Inhibitory Concentrations. Format: cell-based, Candida albicans ATCC 10231. The procedure: as §1, §2
The two species, C. albicans and C. tropicalis, were maintained on Sabouraud-Dextrose Agar (Oxoid CM41) and cultures for the preparation of the inoculum were incubated on this agar at 37° C. for 48 hours. 4.5 Ml volumes of citric acid-phosphate buffer pH 5.5 plus Yeast-Nitrogen Base (Difco 0392-15) were then inoculated from the agar cultures and incubated at 37° C. for 48 hours. 0.1 Ml aliquots of these cultures were then added to 100 ml volumes of sterile physiological saline to give the final inocula.
(b) For the tests on each of the C. albicans, C. tropicalis and C. neoformans strains and each of the test and reference compounds, a series of 8 tubes containing 4.5 ml volumes of citric acid-phosphate buffer pH 5.5 plus Yeast-Nitrogen Base (Difco 0392-15) were prepared. To 7 of these were added 0.5 ml volumes of the final solutions of the test compounds, giving final concentrations in the broths of 100, 50, 10, 5, 1.0, 0.5 and 0.1 μg/ml. To the eighth tube in each series was added 0.5 ml of the solvent used and diluted as for the preparation of the 1000 μg/ml solution of the compound. This tube was used as the growth control. The tubes were then inoculated with 0.1 ml aliquots of the inocula prepared as in "(b) Fungi" above. The tubes inoculated with the C. albicans and C. tropicalis were inoculated at 37° C. for 72 hours and the tubes inoculated with the C. neoformans straim were incubated at 30° C. for 72 hours. […] The tubes were then examined for evidence of growth as shown by turbidity of the medium and the lowest concentration of the test compound which prevented fungal growth was recorded as the Minimal Inhibitory Concentration. This test procedure was carried out on two separate days.

In a further assay the test system is S. schenkii. The assay can be described thus: Antifungal activity: Minimum Inhibitory Concentration. In kind it is cell-based, Sporotrichon schenkii NCPF 3182. Particulars: S. schenkii, 27° C., one week; for MIC: read-out: Minimum Inhibitory Concentration. The method, then: as §1, §2, §3, §4, §5

Where two headings read alike, the source gives them in different places.

As for “2,3(5)-dimethyl-1-dodecyl-pyrazolium methosulfate [Example 8-A]”, the “Minimum Inhibitory Concentration” value in the assay with P. verrucosa (Day 1) worked out at 10 µg/mL; in the assay on P. verrucosa (Day 2) it was 10 µg/mL; with E. coli (Day 1, 37° C.), 50 µg/mL; with E. coli (Day 2, 37° C.), 50 µg/mL; in the assay with P. mirabilis (Day 1) it was 100 µg/mL; with P. mirabilis (Day 2), 100 µg/mL. The “Minimum Inhibitory Concentration” value came out at 100 µg/mL in the assay on A. corymbifera (Day 1), 100 µg/mL in the assay on A. corymbifera (Day 2), 10 µg/mL in the assay on S. schenkii (Day 1) and 10 µg/mL in the assay with S. schenkii (Day 2). The “Minimum Inhibitory Concentrations” value was determined as 10 µg/mL with C. albicans (Day 1) and 50 µg/mL in the assay with C. albicans (Day 2).
For “2,3(5)-dimethyl-1-hexadecyl-pyrazolium methosulfate [Example 9]”, the “Minimum Inhibitory Concentration” value with P. verrucosa (Day 1) is 5 µg/mL; in the assay with P. verrucosa (Day 2), 10 µg/mL; in the assay on E. coli (Day 1, 37° C.), 50 µg/mL; in the assay with E. coli (Day 2, 37° C.), 10 µg/mL; with P. mirabilis (Day 1) it was 10 µg/mL; in the assay on P. mirabilis (Day 2), 10 µg/mL. For the same molecule, the “Minimum Inhibitory Concentration” value in the assay on A. corymbifera (Day 1) was found to be 10 µg/mL; in the assay with A. corymbifera (Day 2) it was 10 µg/mL; in the assay with S. schenkii (Day 1) it was 5 µg/mL; in the assay on S. schenkii (Day 2), 5 µg/mL. Further, the “Minimum Inhibitory Concentrations” value with C. albicans (Day 1) was 5 µg/mL; in the assay on C. albicans (Day 2), 10 µg/mL.
For `CCCCCCCCCCCCn1c(C)cc(C)[n+]1C` [Example 1, 1-dodecyl-2,3,5-trimethyl-pyrazolium methosulfate], the MIC was 5 µg/mL in the assay with P. verrucosa (Day 1); 5 µg/mL in the assay on P. verrucosa (Day 2); 50 µg/mL in the assay on E. coli (Day 1, 37° C.); 100 µg/mL against E. coli (Day 2, 37° C.); 100 µg/mL in the assay on P. mirabilis (Day 1); 100 µg/mL with P. mirabilis (Day 2). Moreover, the MIC in the assay on A. corymbifera (Day 1) was greater than 100 µg/mL; in the assay on A. corymbifera (Day 2), greater than 100 µg/mL; in the assay on C. albicans (Day 1), 10 µg/mL; in the assay on C. albicans (Day 2), 50 µg/mL; in the assay on S. schenkii (Day 1), 50 µg/mL; in the assay on S. schenkii (Day 2), 10 µg/mL.
With `CCCCCCCCCCCCCCCCn1c(C)cc(C)[n+]1C` [Example 2, 1-hexadecyl-2,3,5-trimethyl-pyrazolium methosulfate], the MIC is 5 µg/mL in the assay with P. verrucosa (Day 1); 10 µg/mL in the assay with P. verrucosa (Day 2); 10 µg/mL in the assay on E. coli (Day 1, 37° C.); 5 µg/mL against E. coli (Day 2, 37° C.); 10 µg/mL with P. mirabilis (Day 1); 10 µg/mL in the assay with P. mirabilis (Day 2). Also, the MIC came out at 50 µg/mL with A. corymbifera (Day 1); 50 µg/mL in the assay on A. corymbifera (Day 2); 1 µg/mL in the assay on C. albicans (Day 1); 1 µg/mL with C. albicans (Day 2); 10 µg/mL in the assay with S. schenkii (Day 1); 10 µg/mL with S. schenkii (Day 2).
For `CCCCCCCCCCCCCCCCn1ccc[n+]1C` [Example 3-D, 1-hexadecyl-2-methyl-pyrazolium methosulfate], the MIC worked out at 5 µg/mL in the assay on P. verrucosa (Day 1); 5 µg/mL in the assay with P. verrucosa (Day 2); 10 µg/mL in the assay with E. coli (Day 1, 37° C.); 5 µg/mL in the assay with E. coli (Day 2, 37° C.); 10 µg/mL in the assay on P. mirabilis (Day 1); 50 µg/mL with P. mirabilis (Day 2). Moreover, the MIC came to 10 µg/mL with A. corymbifera (Day 1); 5 µg/mL in the assay on A. corymbifera (Day 2); 1 µg/mL in the assay with C. albicans (Day 1); 1 µg/mL in the assay on C. albicans (Day 2); 5 µg/mL in the assay with S. schenkii (Day 1); 10 µg/mL with S. schenkii (Day 2).
As for `CCCCCCCCCCCCn1ccc[n+]1C` [Example 3-E, 1-dodecyl-2-methy-pyrazolium methosulfate], the MIC is 5 µg/mL in the assay on P. verrucosa (Day 1); 10 µg/mL with P. verrucosa (Day 2); 50 µg/mL in the assay with E. coli (Day 1, 37° C.); 50 µg/mL against E. coli (Day 2, 37° C.); 100 µg/mL in the assay with P. mirabilis (Day 1); 100 µg/mL in the assay on P. mirabilis (Day 2). Moreover, the MIC in the assay on A. corymbifera (Day 1) turned out to be 100 µg/mL; in the assay on A. corymbifera (Day 2) it was 100 µg/mL; in the assay on C. albicans (Day 1) it was 50 µg/mL; in the assay on C. albicans (Day 2), 50 µg/mL; in the assay on S. schenkii (Day 1), 50 µg/mL; in the assay on S. schenkii (Day 2), 10 µg/mL.
As to `CCCCCCCCCCCCCCn1ccc[n+]1C` [Example 3-G, 2-methyl-1-tetradecyl-pyrazolium methosulfate], the MIC with P. verrucosa (Day 1) was found to be 5 µg/mL; in the assay with P. verrucosa (Day 2), 5 µg/mL; with E. coli (Day 1, 37° C.), 10 µg/mL; with E. coli (Day 2, 37° C.) it was 10 µg/mL; in the assay on P. mirabilis (Day 1), 50 µg/mL; with P. mirabilis (Day 2), 50 µg/mL. Further, the MIC with A. corymbifera (Day 1) is 10 µg/mL; in the assay with A. corymbifera (Day 2) it was 10 µg/mL; with C. albicans (Day 1) it was 5 µg/mL; in the assay with C. albicans (Day 2), 5 µg/mL; with S. schenkii (Day 1), 5 µg/mL; with S. schenkii (Day 2) it was 10 µg/mL.
